Assay results: PubChem BioAssay (NCI)
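Where inhibition never reached the appropriate level, the endpoint shown equals the highest concentration tested. Otherwise, values were interpolated linearly from a five-concentration, 48-hour dose response in 96-well plates. GI50 is the concentration that inhibits growth by half. TGI: total growth inhibition.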

Key:
Test in all cases: NCI tumour cell line growth inhibition, 48 h
TK-10 renal = test system: TK-10 renal
LOX IMVI melanoma = test system: LOX IMVI melanoma
IGROV1 ovarian = test system: IGROV1 ovarian
U251 CNS = test system: U251 CNS
RXF 393 renal = test system: RXF 393 renal
NCI-H522 lung = test system: NCI-H522 lung
MDA-MB-435 = test system: MDA-MB-435

## COc1ccc2c(c1)OCCC1=C2SCC2(C)CCN=C12 (configuration not stated)
TK-10 renal
  TGI: > 100 µM
LOX IMVI melanoma
  TGI: > 100 µM
IGROV1 ovarian
  TGI: > 100 µM
U251 CNS
  TGI: > 100 µM
RXF 393 renal
  TGI: > 100 µM
NCI-H522 lung
  TGI: > 100 µM

## CC(=O)O[C@H]1C=CC23OC(=O)[C@]1(C)[C@H]2[C@H](C(=O)O)C12CC(=O)[C@@](CO)(CC[C@H]13)C2
TK-10 renal
  TGI: > 100 µM
LOX IMVI melanoma
  TGI: > 100 µM
IGROV1 ovarian
  TGI: > 100 µM
U251 CNS
  TGI: > 100 µM
RXF 393 renal
  TGI: > 100 µM
NCI-H522 lung
  TGI: > 100 µM

## Nc1ccc(C(=O)N/C(=C\c2cccc([N+](=O)[O-])c2)c2nc3c4c(ccc3[nH]2)C(=O)c2ccccc2C4=O)cc1
TK-10 renal
  TGI: 77 µM
LOX IMVI melanoma
  TGI: > 100 µM
IGROV1 ovarian
  TGI: > 100 µM
U251 CNS
  TGI: > 100 µM
RXF 393 renal
  TGI: 57.7 µM
NCI-H522 lung
  TGI: 71.2 µM

## Nc1c(-c2nc3ccccc3[nH]2)sc(=S)n1-c1ccc(Cl)cc1
TK-10 renal
  TGI: 56.1 µM
LOX IMVI melanoma
  TGI: 50.5 µM
IGROV1 ovarian
  TGI: 73.2 µM
U251 CNS
  TGI: 53.9 µM
RXF 393 renal
  TGI: 41.3 µM
NCI-H522 lung
  TGI: 58.1 µM

## COc1ccc(C(=O)O/N=C2/CCC/C2=C\c2ccccc2)cc1
TK-10 renal
  TGI: > 100 µM
LOX IMVI melanoma
  TGI: > 100 µM
IGROV1 ovarian
  TGI: > 100 µM
U251 CNS
  TGI: > 100 µM
RXF 393 renal
  TGI: > 100 µM
NCI-H522 lung
  TGI: > 100 µM

## COC(=O)Cc1nc2ccccc2o1
TK-10 renal
  TGI: > 100 µM
IGROV1 ovarian
  TGI: > 100 µM
U251 CNS
  TGI: > 100 µM
RXF 393 renal
  TGI: > 100 µM
NCI-H522 lung
  TGI: > 100 µM

## COc1cc([C@@H]2c3cc4c(cc3C[C@H]3COC(=O)[C@@H]32)OCO4)cc2c1OCO2
TK-10 renal
  TGI: 3.48 µM
MDA-MB-435
  TGI: < 0.01 µM
LOX IMVI melanoma
  TGI: > 68.2 µM
IGROV1 ovarian
  TGI: 0.048 µM
U251 CNS
  TGI: > 100 µM
RXF 393 renal
  TGI: > 100 µM
NCI-H522 lung
  TGI: > 100 µM

## C[n+]1c(N)n(C(=O)OCc2ccccc2)c(=O)c2c1ncn2C(=O)OCc1ccccc1
TK-10 renal
  TGI: > 100 µM
LOX IMVI melanoma
  TGI: > 100 µM
IGROV1 ovarian
  TGI: > 100 µM
U251 CNS
  TGI: > 100 µM
NCI-H522 lung
  TGI: > 100 µM

## Cn1ccnc1C[N-]Cc1nccn1C.O=[N+]([O-])[O-].O=[N+]([O-])[O-].[Cu+2]
TK-10 renal
  GI50: > 100 µM
  TGI: > 100 µM
LOX IMVI melanoma
  GI50: > 100 µM
  TGI: > 100 µM
IGROV1 ovarian
  GI50: > 100 µM
  TGI: > 100 µM
U251 CNS
  GI50: > 100 µM
  TGI: > 100 µM
RXF 393 renal
  GI50: > 100 µM
  TGI: > 100 µM
NCI-H522 lung
  GI50: > 100 µM
  TGI: > 100 µM

## CC1=C(C(=O)Nc2ccccc2)C(c2ccc(C(C)C)cc2)C(C(=O)Nc2ccccc2)=C(C)N1
TK-10 renal
  TGI: > 100 µM
LOX IMVI melanoma
  TGI: 30.4 µM
IGROV1 ovarian
  TGI: > 100 µM
U251 CNS
  TGI: 45.1 µM
RXF 393 renal
  TGI: 27.6 µM
NCI-H522 lung
  TGI: 45.4 µM

## Cc1ccc(S(=O)OC23CC4CC(CC(C4)C2)C3)cc1 (configuration not stated)
TK-10 renal
  TGI: > 100 µM
LOX IMVI melanoma
  TGI: > 100 µM
IGROV1 ovarian
  TGI: 85.7 µM
U251 CNS
  TGI: > 100 µM
RXF 393 renal
  TGI: > 100 µM
NCI-H522 lung
  TGI: > 100 µM

## COc1ccc2nc3cccc(C(=O)NCCN(C)C)c3nc2c1
TK-10 renal
  TGI: 8.6 µM
LOX IMVI melanoma
  TGI: 2.45 µM
IGROV1 ovarian
  TGI: > 48.2 µM
U251 CNS
  TGI: 11.3 µM
RXF 393 renal
  TGI: 3.21 µM
NCI-H522 lung
  TGI: > 100 µM

## CCOC(=O)/N=c1/nc(N(C)C)ss1
TK-10 renal
  TGI: > 100 µM
IGROV1 ovarian
  TGI: > 100 µM
U251 CNS
  TGI: > 100 µM
RXF 393 renal
  TGI: > 100 µM
NCI-H522 lung
  TGI: > 100 µM

## NS(=O)(=O)c1ccc(NC(=O)COC(=O)c2cccc3c(=O)c4ccccc4[nH]c23)cc1
TK-10 renal
  TGI: 77.1 µM
LOX IMVI melanoma
  TGI: 43 µM
IGROV1 ovarian
  TGI: 61.5 µM
U251 CNS
  TGI: 28.1 µM
RXF 393 renal
  TGI: 42.3 µM
NCI-H522 lung
  TGI: 43.5 µM

## COc1ccc(C2=NOP(c3ccccc3)(c3ccccc3)(c3ccccc3)C2)cc1
TK-10 renal
  TGI: > 100 µM
LOX IMVI melanoma
  TGI: 27.1 µM
IGROV1 ovarian
  TGI: > 100 µM
U251 CNS
  TGI: > 93.1 µM
RXF 393 renal
  TGI: 97.4 µM
NCI-H522 lung
  TGI: 25.1 µM

## NCP(=O)(O)OCC(=O)O
TK-10 renal
  TGI: > 100 µM
LOX IMVI melanoma
  TGI: > 100 µM
IGROV1 ovarian
  TGI: > 100 µM
U251 CNS
  TGI: > 100 µM
RXF 393 renal
  TGI: > 100 µM
NCI-H522 lung
  TGI: > 100 µM

## Cc1ccc(NC(=O)CCC(=O)C(C#N)c2ccccc2)cc1C (configuration not stated)
TK-10 renal
  TGI: > 100 µM
LOX IMVI melanoma
  TGI: > 100 µM
IGROV1 ovarian
  TGI: > 100 µM
U251 CNS
  TGI: > 100 µM
NCI-H522 lung
  TGI: > 100 µM

## C1C[OH+]CC[OH+]CC[OH+]CC[OH+]CC[OH+]CC[OH+]1.[Cl-].[Nb+5]
TK-10 renal
  GI50: > 100 µM
  TGI: > 100 µM
LOX IMVI melanoma
  GI50: > 100 µM
  TGI: > 100 µM
IGROV1 ovarian
  GI50: > 100 µM
  TGI: > 100 µM
U251 CNS
  GI50: > 100 µM
  TGI: > 100 µM
RXF 393 renal
  GI50: 85.3 µM
  TGI: > 100 µM
NCI-H522 lung
  GI50: > 100 µM
  TGI: > 100 µM

## COC(=O)C1CC(C(=O)OC)c2nc3cc(C)c(C)cc3nc21 (configuration not stated)
TK-10 renal
  TGI: > 100 µM
LOX IMVI melanoma
  TGI: > 100 µM
IGROV1 ovarian
  TGI: > 100 µM
U251 CNS
  TGI: > 100 µM
NCI-H522 lung
  TGI: > 100 µM

## CN(C)CCNc1nc(-c2cccs2)cc(-c2cccs2)n1
TK-10 renal
  TGI: 29 µM
LOX IMVI melanoma
  TGI: 22.7 µM
IGROV1 ovarian
  TGI: 69.2 µM
U251 CNS
  TGI: 24.4 µM
RXF 393 renal
  TGI: 28.6 µM

## Cn1cc(NC(=O)c2cc(NC(=O)CCCCCCC(=O)Nc3cc(C(=O)Nc4cc(C(=O)NCCC(=N)N)n(C)c4)n(C)c3)cn2C)cc1C(=O)NCCC(=N)N
TK-10 renal
  TGI: 72.9 µM
LOX IMVI melanoma
  TGI: 18.5 µM
IGROV1 ovarian
  TGI: 12.8 µM
U251 CNS
  TGI: 68.8 µM
RXF 393 renal
  TGI: 31.4 µM

## CN(C)CC1CCCC/C1=N/OC(=O)c1ccc(Cl)c(Cl)c1 (configuration not stated)
TK-10 renal
  TGI: > 100 µM
LOX IMVI melanoma
  TGI: > 100 µM
IGROV1 ovarian
  TGI: > 100 µM
U251 CNS
  TGI: > 100 µM
RXF 393 renal
  TGI: > 100 µM
NCI-H522 lung
  TGI: > 100 µM

## Nc1nc(N)c(-c2ccccc2)c(CCC(=O)Nc2ccc(Cl)cc2)n1
TK-10 renal
  TGI: > 100 µM
IGROV1 ovarian
  TGI: > 100 µM
U251 CNS
  TGI: > 100 µM
NCI-H522 lung
  TGI: > 100 µM
